Results from US7608601B2, “4′-Substituted nucleoside derivatives as inhibitors of HCV RNA replication” (Roche Palo Alto LLC, priority 2001, dated 2009).
pIC50: −log10 of the molar value.

Tests used:
HCV replicon RNA = assay: Renilla luciferase HCV replicon assay; format: cell-based, Hepatitis C Virus; settings: Huh7 2209-23 cells, three days
[1] = test system: Renilla Luciferase HCV replicon cells (2209-23); assay: WST-1 cytotoxicity assay; format: cell-based, human; settings: 2209-23 cells, three days
Experimental: For the assay procedure, Renilla Luciferase HCV replicon cells (2209-23) that cultured in Dulbecco's MEM (GibcoBRL cat no. 31966-021) with 5% fetal calf serum (FCS, GibcoBRL cat. no. 10106-169) were plated onto a 96-well plate at 5000 cells per well, and incubated overnight. Twenty-four hours later, different dilutions of chemical compounds in the growth medium were added to the cells, which were then further incubated at 37° C. for three days. The assay was carried out in duplicate plates, one in opaque white and one in transparent, in order to measure the activity and cytotoxicity of a chemical compound in parallel ensuring the activity seen is not due to reduction on cell proliferation.
For the cytotoxicity assay, WST-1 reagent from Roche Diagnostic (cat no. 1644807) was used. Ten microlitre of WST-1 reagent was added to each well including wells that contain media alone as blanks. Cells were then incubated for 1 to 1.5 hours at 37° C., and the OD value was measured by a 96-well plate reader at 450 nm (reference filter at 650 nm). Again CC50, the concentration of the drug required for reducing cell proliferation by 50% in relation to the untreated cell control value, can be calculated from the plot of percentage reduction of the WST-1 value vs. drug concentration.

Row | Structure (SMILES) | IC50 (μM), given as % at a concentration (HCV replicon RNA; at 20 μM) | CC50(μM) WST-1, given as % at a concentration ([1]; at 20 μM) | pIC50 (HCV replicon RNA; Hepatitis C virus, Huh-7, 72 h, concentration reducing replicon level by 50% vs untreated control) | CC50(μM) WST-1, given as % at a concentration ([1]; at 100 μM)
1 | C#C[C@]1(CO)O[C@@H](n2ccc(N)nc2=O)[C@H](O)[C@@H]1O.Cl [compound 3, 4′-C-Ethynylcytidine hydrochloride (1:1)] | 3% (20 μM) | 0% (20 μM) |  | 
2 | [N-]=[N+]=N[C@]1(CO)O[C@@H](n2ccc(N)nc2=O)[C@H](O)[C@@H]1O [compound 1, 4′-C-Azidocytidine] |  |  | 5.92 | 0% (100 μM)
